# Article PMC7988117, “OMN6 a novel bioengineered peptide for the treatment of multidrug resistant Gram negative bacteria” (Scientific Reports, 2021)
# Bridge positions count the residues as written; N and C are the ends. Peptide text beside a SMILES is read from it.
# Assays:
# Proteinase-K = target: T1, Proteinase-K (Parengyodontium album, UniProt P06873); experiment: Peptide stability to Proteinase-K (SDS-PAGE); format: in vitro ADME; conditions: 10 µg peptide with 5 or 20 ng Proteinase-K (0.16 or 0.66 µg/mL), 2 h, 37 °C; 15% acrylamide SDS-PAGE, Coomassie stain
# T1 construct: purchased Sigma-Aldrich
# Protocol: 10 µg of synthetic cecropin A (Genscript, Piscataway, NJ, USA), OMN6, or bovine serum albumin (BSA; Sigma-Aldrich, St. Louis, MO, USA) were incubated with 5 or 20 ng Proteinase-K (Sigma-Aldrich; final treatment concentration of 0.16 or 0.66 µg/mL respectively) for 2 h at 37 °C, and separated on a 15% acrylamide gel (Bio-Rad, Hercules, CA, USA) by SDS-PAGE. The gel was then stained with Coomassie dye and excess color was removed over-night.
# HEK293T cells = format: cell-based
# Protocol: HEK-293T17 cells (ATCC CRL-1573) were purchased from ATCC and cultured to 80% confluency according to the ATCC culture method, using high-glucose and L-Glutamine Dulbecco's Modified Eagle Medium (DMEM) medium (ATCC catalog number 30-2002) supplemented with 10% fetal bovine serum and 1% Penicillin–Streptomycin solution (all from Biological Industries). For the experiment purposes, 30,000 cells were transferred to a 96-well plate (experiment plate) in a final volume of 100 µL of medium. The experiment plate was incubated at 5% CO2 and 37 °C for approximately 18 h. After 18 h, medium was discarded, and cells were co-incubated with OMN6, Melittin (Sigma-Aldrich) or dimethyl sulfoxide (DMSO; MP Biomedical LLC, Solon, OH, USA) that were prepared in new medium at desired concentrations. The experiment plate was incubated at 5% CO2 and 37 °C for 24 h. Then, glutaraldehyde at a final concentration of 0.5% was added in all wells for 10 min for cell fixation. After washing the plate 3 times with DDW, the experiment plate was dried overnight. Then, cells were washed with 0.1 M Borate buffer (pH = 8.5) for 1 min. 100 µL Methylene Blue diluted in the same Borate buffer was added to all wells for 1 h. Wells were washed with DDW and plate was dried overnight. Color extraction was executed by adding 0.1 M HCl. After an incubation at 37 °C for 1 h, cell survival was determined via absorbance at 620 nm using a microplate reader.
# [1] = system: Acinetobacter baumannii clinical isolates; experiment: Time-kill studies; format: cell-based
# Protocol: Time-kill experiments were performed by JMI Laboratories (North Liberty, IA, USA) as described in chapter 5.14 of the Clinical Microbiology Procedures Handbook[32] and the CLSI M26-A[33] document. Two Acinetobacter baumannii clinical isolates (JMI colistin-sensitive strain #1088100 and colistin-resistant strain #1001007) were used for this study. MIC values that were determined in Difco Muller Hinton Broth (BD) for OMN6 and colistin as described above, were used as the baseline values during time-kill testing. In the time-kill experiments, OMN6 and colistin were tested in Difco Muller Hinton Broth. The time-kill cultures were sampled at 0, 2, 4, 8, and 24 h after compound addition. The number of CFU/mL in each culture was measured by plating 100 μL of serial dilutions onto blood agar plates. Colonies were counted after 48 h of growth at 35 °C. Time-kill curves were generated by plotting CFU/mL as log10 values over time. The limit of detection was 10 CFU/mL. Bactericidal activity was defined as a ≥ 99.9% reduction (i.e., a ≥ 3 log10 decrease) in the number of input bacterial cells at any arbitrary timepoint.
# E. coli GFPuv = format: cell-based, Escherichia coli
# Protocol: E. coli GFPuv bacteria (contribution from Dr. Tsafi Danieli, head of the Protein Expression Facility at the Hebrew University of Jerusalem, Israel) were grown in LB broth (BD) and induced to express the Green Fluorescent Protein (GFP) in auto-induction medium, as previously described by F.W. Studier[31]. Briefly, bacteria were cultured for 3 h at 37 °C while shaking at 200 rpm, in induction medium ZYP-5052 containing 1% N-Z amine AS, 0.5% yeast extract, 50 mM Na2HPO4, 50 mM KH2HPO4, 25 mM (NH4)2SO4, 2 mM MgSO4, 0.5% glycerol, 0.05% glucose and 0.2% lactose. For the bacterium visualization experiment, 2 × 10^6 colony-forming units (CFU) were treated by 16 µg/mL OMN6 or Double-Distilled Water (DDW) for 60 min. Bacteria were monitored with a confocal microscope at a wavelength of 488 nm. Then, bacteria were seeded on LB agar (BD) plates, incubated at 37 °C for 24 h, and CFU were counted. For the supernatant visualization and quantification experiment, 10^5 CFU were co-incubated with 50 µM OMN6 or DDW for 30 min, and bacteria were collected and centrifuged at 5000 rpm for 10 min. Experiment tubes were visualized under UV light. Then, supernatants were collected, and the absence of a significant quantity of bacteria in the supernatants was checked in a microplate reader by absorbance at 600 nm (OD < 0.05). Fluorescence levels were then quantified with excitation at 395 nm and emission at 509 nm.
# T1 sequence (P06873 106-384): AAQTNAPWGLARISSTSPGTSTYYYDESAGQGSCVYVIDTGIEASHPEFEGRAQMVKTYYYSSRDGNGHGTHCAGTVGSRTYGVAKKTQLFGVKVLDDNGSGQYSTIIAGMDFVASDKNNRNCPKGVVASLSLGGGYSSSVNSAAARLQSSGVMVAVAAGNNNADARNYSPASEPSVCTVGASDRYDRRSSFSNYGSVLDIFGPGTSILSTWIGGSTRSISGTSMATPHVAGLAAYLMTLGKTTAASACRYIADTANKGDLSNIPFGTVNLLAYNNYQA
structure (smiles),measurement,setting,value
CC[C@H](C)[C@@H]1NC(=O)CNC(=O)[C@H](CC(=O)O)NC(=O)[C@H](CCCNC(=N)N)NC(=O)[C@H]([C@@H](C)CC)NC(=O)[C@H](CC(N)=O)NC(=O)[C@H](CCC(N)=O)NC(=O)CNC(=O)[C@H](C(C)C)NC(=O)[C@H](CCCCN)NC(=O)[C@H](CCC(=O)O)NC(=O)[C@H]([C@@H](C)CC)NC(=O)[C@H](CCCCN)NC(=O)[C@H](CCCCN)NC(=O)[C@H](Cc2ccccc2)NC(=O)[C@H](CC(C)C)NC(=O)[C@H](CCCCN)NC(=O)[C@H](Cc2c[nH]c3ccccc23)NC(=O)[C@H](CCCCN)NC(=O)[C@@H](NC(=O)[C@@H](N)CCSC)CSSC[C@@H](C(N)=O)NC(=O)[C@H](CCCCN)NC(=O)[C@H](C)NC(=O)[C@H]([C@@H](C)CC)NC(=O)[C@H](CCC(N)=O)NC(=O)[C@H]([C@@H](C)O)NC(=O)[C@H](C)NC(=O)[C@H](CCC(N)=O)NC(=O)CNC(=O)[C@H](C(C)C)NC(=O)[C@H](C(C)C)NC(=O)[C@H](C)NC(=O)[C@H](C(C)C)NC(=O)[C@H](C)NC(=O)[C@@H]2CCCN2C(=O)CNC(=O)[C@H](C)NC(=O)[C@H](CCCCN)NC(=O)[C@H]([C@@H](C)CC)NC1=O [OMN6] (H-MCKWKLFKKIEKVGQNIRDGIIKAGPAVAVVGQATQIAKC-NH2; disulfide 2-40; N-terminus assumed),Stability after exposure to Proteinase-K,Proteinase-K,remained intact
same,Survival rate of HEK293T cells,"HEK293T cells; 6.25–200 µM (27–868 µg/mL), 24 h, Methylene Blue, absorbance 620 nm, all concentrations",not affected
same,Therapeutic window (no toxicity to mammalian cells vs MIC value against Gram-negative bacterial species),HEK293T cells; relative to MIC against Gram-negative species,larger than tenfold
same,Bactericidal pattern on colistin-resistant strain,"[1]; colistin-resistant A. baumannii JMI #1001007, similar timeframe and concentrations as on the colistin-sensitive strain",retained its bactericidal pattern
same,Concentrations with bactericidal effect after 2 h of incubation,"[1]; colistin-sensitive A. baumannii JMI #1088100, Difco Muller Hinton Broth, bactericidal = ≥ 3 log10 decrease",> 8 µg/mL
same,Re-growth during the 24 h timeframe,"[1]; colistin-sensitive A. baumannii JMI #1088100, Difco Muller Hinton Broth, sampled 0, 2, 4, 8, 24 h",No re-growth
same,"Reduction in fluorescence arbitrary units (FU) of a bacterium, T = 0 h to T = 1 h (GFP leakage)","E. coli GFPuv; 16 µg/mL, 60 min, confocal microscope 488 nm, single bacterium","12,000 FU"
same,CFU on agar plates after treatment (bacterial death),"E. coli GFPuv; 2 × 10^6 CFU, 16 µg/mL, 60 min, then LB agar 37 °C 24 h, data not shown",No CFU
same,Level of fluorescence (FU) in supernatants vs DDW control,"E. coli GFPuv; E. coli GFPuv 10^5 CFU, 50 µM, 30 min, centrifuged 5000 rpm, excitation 395 nm, emission 509 nm, p = 0.01",distinct increase
